pIC50: −log10 of the molar value. “Also recorded” adds a separate entry of the source. Like-named read-outs stand apart in the source and are kept apart here. Values belong to the compound of their own block, whether it stands above or below them.
Tests used:
[1] = test system: SAB; test: SAB levels in rats injected with 6-OHDA (ventral midbrain western blot, blood cells); assay type: in vivo, rat
Excerpt: Parkinson's disease-like state was induced in animals by localizing treatment to the ventral midbrains of rats using 6-hydroxydopamine. Blood was obtained from 6-hydroxydopamine treated rats and the control rats. Levels of SAB protein or RNA encoding SAB proteins in platelets and other blood cells were higher in 6-hydroxydopamine treated rats compared to control rats.
Further, disruption of SAB-mediated signaling using a small peptide to block kinase binding to SAB prevented 6-OHDA-induced motor deficiencies in rats (FIG. 8).

[2] = test system: Sab expression; test: In-cell western for SAB expression in SH-SY5Y cells treated with 6-OHDA; assay type: cell-based, human; details: increasing sub-chronic doses of 6-OHDA (0-100.00 nM, 24 hours)
Procedure: Cells or tissue samples are placed in a fluorescent compatible plate (for example, a 96-well plate) and the sample can be fixed to the plate. The sample is then permeabilized using detergent to disrupt the plasma membrane. Primary antibodies to detect SAB (Abnova, Inc.) are then incubated with the samples. Following a brief wash, the cells are incubated with a fluorescently labeled secondary antibody used to recognize the primary antibody. The samples are washed again. The plate is then scanned on a Li-Cor Bioscience Odyssey CLx near-infrared scanner to measure the fluorescent signal from the sample. A high fluorescent signaling indicates a higher level of SAB protein, while a low fluorescence signal indicates a lower level of SAB protein.
An in-cell western allows detection of protein levels in cells cultured in a 96-well black walled plate. For this technique, the cells are fixed with paraformaldehyde following seeding and growth to 80% confluency. […] Using the LiCor Odyssey CLx near infrared imager, the relative amounts of protein in each well are quantified. […]
An example of in-cell western technology for the detection of SAB is shown in (FIG. 3). […] In a model of cytotoxicity, SH-SY5Y cells treated with increasing sub-chronic doses of the neurotoxin, 6-hydroxydopamine (6-OHDA) were seeded in a 96-well plate and monitored for SAB expression.

[3] = patients; cited from earlier work
[4] = test system: SAB; test: SAB levels in response to chronic cytotoxic processes; details: treatment with CCCP
[5] = test system: HeLa cells; test: Calculation of paclitaxel and cisplatin IC50s by TO-PRO-3 staining; assay type: cell-based, human
Procedure: LY294002 was solubilized in dimethylformamide (DMF). HeLa cells were exposed to the indicated doses of LY294002 over 24 h for acute studies. […] For sub-chronic exposure, cells were dosed with 2 μM LY294002 for seven days. The media was exchanged every 48 h to sustain the drug concentrations.
Briefly, 10,000 cells were plated in a black-walled optically clear bottom 96-well plate. […] The cells were fixed in 4% paraformaldehyde for 25 min at room temperature, and stained with TO-PRO-3 (1 μM) in PBST (150 mM NaCl, 8 mM Na2HPO4, 3 mM KCl, 2 mM KH2PO4, pH 7.4, 0.05% Tween 20). The cells were then washed five times in PBST while gently rocking for 5 min at room temperature. Samples were protected from light during incubations. Assays were visualized on the Li-Cor Odyssey CLx imager, and IC50s were calculated using Graphpad® Prism.
Transient transfections with pLOC plasmids for expression and pLKO.1 plasmids for silencing (Open Biosystems) were used to modulate Sab levels. HeLa cells were plated at a density of 2×10^5 cells per 35-mm dish the day before transfections. Plasmids were mixed with FugeneHD (Promega) at a ratio of 3:1 according to the manufacturer's protocol. Protein levels were monitored by western blot analysis.
(§1) Studies using LY294002 have employed high doses (often >10 μM). […] For acute treatments, cells were dosed with 0.1% DMF or increasing concentrations of LY294002 (2 μM, 10 μM, and 50 μM) for 24 h.

[6] = test system: JNK; test: JNK activation and mitochondrial JNK in LY294002-treated HeLa cells by western blot; assay type: cell-based, human
Procedure: (§2) Following 72 h of transfection, cells were lysed and proteins were harvested. Protein concentration was determined using the by Pierce BCA Assay kit. Proteins were resolved by SDS-PAGE, and transferred onto PVDF membranes. Membranes were incubated with Li-Cor Biosciences Odyssey Blocking for at least 1 h at room temperature. The membranes were then incubated with primary antibodies specific for Sab, JNK, p44/42 MAPK (Erk1/2), p38, GAPDH, Actin, Calnexin, TOM20, or α-tubulin at 1:1000 dilutions in blocking buffer. Membranes were washed three times for 5 min in PBST. Membranes were incubated with secondary antibodies in blocking buffer at 1:20,000 for fluorescently conjugated secondary antibodies. Membranes were again washed three times for 5 min in PBST. Western blots were developed using the Odyssey CLx imager (Li-Cor Biosciences).
Mitochondria were isolated from HeLa cells. […]
(§3) Western blot images were acquired using the LI-COR Odyssey CLx imager. Fluorescence signals were acquired for the bands of interest. […]
To determine if LY294002 impacted the concentration of JNK signaling on mitochondria, the expression of Sab was measured in HeLa cells in both acute and sub-chronic administration of LY294002. […] As time increased, there was a noticeable increase (˜8-fold) in Sab expression in the LY294002 compared to DMF-treated and untreated cells (FIG. 17B and quantified in FIG. 18B). […]

[7] = test system: Sab expression; test: Sab expression in LY294002-treated HeLa cells by quantitative western blot; assay type: cell-based, human
Procedure: LY294002 was solubilized in dimethylformamide (DMF). HeLa cells were exposed to the indicated doses of LY294002 over 24 h for acute studies. The 24-h IC10 for LY294002 in HeLa cells to be ˜2 μM. For sub-chronic exposure, cells were dosed with 2 μM LY294002 for seven days. The media was exchanged every 48 h to sustain the drug concentrations.
as §2, with “Western blots were developed using the Odyssey CLx imager (Li-Cor Biosciences).” left out
as §3
HeLa cell mitochondria were primed using a sub-chronic (2 μM dose) of LY294002 for seven days. The concentration of SAB was monitored using quantitative western blot analysis on protein lysates taken on days 0, 3, and 7 of LY294002 treatment.
To determine if LY294002 impacted the concentration of JNK signaling on mitochondria, the expression of Sab was measured in HeLa cells in both acute and sub-chronic administration of LY294002. […] As time increased, there was a noticeable increase (˜8-fold) in Sab expression in the LY294002 compared to DMF-treated and untreated cells (FIG. 17B and quantified in FIG. 18B). […] To determine if mitochondrial translocation of JNK occurred during the sub-chronic treatment, mitochondrial isolates were analyzed for the presence of JNK on days 3 and 4 (the days of maximal JNK activation). […]

[8] = test system: HeLa cells; test: LY294002 toxicity / viability of HeLa cells; assay type: cell-based, human
Procedure: LY294002 was solubilized in dimethylformamide (DMF). HeLa cells were exposed to the indicated doses of LY294002 over 24 h for acute studies. […] […] The media was exchanged every 48 h to sustain the drug concentrations.
as §1

[9] = test system: SK-OV-3 ovarian cancer cells; test: Paclitaxel sensitivity of SK-OV-3 cells over-expressing SH3BP5; assay type: cell-based, human; details: paclitaxel following 48 hours of transfection

Compound: NCCc1cc(O)c(O)cc1O [6-OHDA, 6-hydroxydopamine]
- Levels of SAB protein or RNA encoding SAB proteins in platelets and other blood cells ([1]; 6-hydroxydopamine treated rats compared to control rats): higher
- SAB levels in ventral midbrain ([1]; rats stereotactically injected with 6-OHDA versus saline, six days post-injection): SAB levels increase; also recorded: elevated
- SAB expression [2]: elevates SAB expression; also recorded: increased in a dose-dependent manner

Compound: Sc1ncnc2nc[nH]c12 [6-mercaptopurine]
- Doses that can induce hepatotoxicity [3]: greater than 2 mg/kg

Compound: N#CC(C#N)=NNc1cccc(Cl)c1 [CCCP, carbonylcyanide m-chlorophenylhydrazone]
- SAB levels [4]: increased

Compound: N.N.[Cl][Pt][Cl] [Cisplatin]
- pIC50 ([5]; read-out: Cisplatin IC50, Sab shRNA#2 + Sab:shRNA^r (rescue)): 8.14
- pIC50 ([5]; read-out: Cisplatin IC50, gene silencing, Sab shRNA#1): 7.92
- pIC50 ([5]; read-out: Cisplatin IC50, gene silencing, Sab shRNA#2): 7.73
- pIC50 ([5]; read-out: Cisplatin IC50, gene silencing, control shRNA): 8.41
- pIC50 ([5]; read-out: Cisplatin IC50, sub-chronic (7 days) 2 μM LY294002): 9.27
- pIC50 ([5]; read-out: Cisplatin IC50, untreated): 8.49

Compound: O=c1cc(N2CCOCC2)oc2c(-c3ccccc3)cccc12 [LY294002, 2-Morpholin-4-yl-8-phenylchromen-4-one]
- Increase in phospho-JNK levels ([6]; 2 μM LY294002, between days 2 and 4): over 10 fold
- JNK levels on mitochondria ([6]; 2 μM LY294002, between days 3 and 4): increased
- Increase in Sab expression compared to DMF-treated and untreated cells ([7]; 2 μM LY294002, 7 days): ~8 fold
- SAB expression (in words) ([7]; 2 μM LY294002 for seven days): pronounced increase; also recorded: significant increase; also recorded: increased SH3BP5 expression
- Sab expression versus 0.1% DMF and untreated controls ([7]; 2 μM, 10 μM and 50 μM LY294002 over 24 h): neither condition increased Sab expression
- HeLa cell viability ([8]; 2 μM LY294002, seven days): little impact
- HeLa cell viability ([8]; 10 μM and 50 μM LY294002, seven days): lethal
- 24-h IC10 for LY294002 ([8]; HeLa cells, 24 h): ~2 µM

- pIC50 ([5]; Homo sapiens, HeLa, 24 h, acute (24 h) 2 μM LY294002, read-out: Paclitaxel IC50): 4.85
- pIC50 ([5]; Homo sapiens, HeLa, 24 h, acute (24 h) 10 μM LY294002, read-out: Paclitaxel IC50): 5.20
- pIC50 ([5]; Homo sapiens, HeLa, 24 h, acute (24 h) 50 μM LY294002, read-out: Paclitaxel IC50): 5.72
- pIC50 ([5]; Homo sapiens, HeLa, 24 h, acute (24 h) 50 μM LY294002, read-out: Paclitaxel IC50 (as worded in text)): 5.72
- pIC50 ([5]; Homo sapiens, HeLa, 24 h, acute (24 h) 0.1% DMF, read-out: Paclitaxel IC50): 4.87
- pIC50 ([5]; Homo sapiens, HeLa, 168 h, sub-chronic (7 days) 2 μM LY294002, read-out: Paclitaxel IC50): 5.29
- pIC50 ([5]; Homo sapiens, HeLa, 168 h, sub-chronic (7 days) 0.1% DMF, read-out: Paclitaxel IC50): 4.86
- pIC50 ([5]; Homo sapiens, HeLa, Sab shRNA#2 + Sab:shRNA^r (rescue), read-out: Paclitaxel IC50): 4.55
- pIC50 ([5]; Homo sapiens, HeLa, ectopic expression of RFP, read-out: Paclitaxel IC50): 4.87
- pIC50 ([5]; Homo sapiens, HeLa, ectopic expression of Sab, read-out: Paclitaxel IC50): 5.33
- pIC50 ([5]; Homo sapiens, HeLa, ectopic expression of Sab: KIM1/2-L/A, read-out: Paclitaxel IC50): 4.86
- pIC50 ([5]; Homo sapiens, HeLa, gene silencing, Sab shRNA#1, read-out: Paclitaxel IC50): 4.21
- pIC50 ([5]; Homo sapiens, HeLa, gene silencing, Sab shRNA#2, read-out: Paclitaxel IC50): 4.13
- pIC50 ([5]; Homo sapiens, HeLa, gene silencing, control shRNA, read-out: Paclitaxel IC50): 4.82
- pIC50 ([5]; Homo sapiens, HeLa, untreated, read-out: Paclitaxel IC50): 4.83
Compound: CC(=O)O[C@H]1C(=O)[C@@]2(C)[C@H]([C@H](OC(=O)c3ccccc3)[C@]3(O)C[C@H](OC(=O)[C@H](O)[C@@H](NC(=O)c4ccccc4)c4ccccc4)C(C)=C1C3(C)C)[C@]1(OC(C)=O)CO[C@@H]1C[C@@H]2O [Paclitaxel]
- Decrease in the IC50 of paclitaxel on increasing Sab expression ([5]; pLOC:Sab versus untreated, mock-transfected or RFP cells): 5 fold
- Sensitivity to paclitaxel of SH3BP5 over-expressing cells compared to mock and D-AKAP1 over-expressing cells [9]: 2.5 times

— US10078090B2, “SAB as a biomarker for degenerative diseases and therapeutic sensitivity in cancers” (The Florida International University Board of Trustees, priority 2014, dated 2018)
